In general, IC50 refers to the point on the concentration scale where inhibition reaches its midpoint. A high value points to weaker potency in that assay.

Data on 20 compounds can be found in patent publication US20240067613A1, “NOVEL QUINAZOLINE DERIVATIVES AS SOS1 INHIBITORS AND USE THEREOF” (HANMI PHARMACEUTICAL CO., LTD., priority 2020, published 2024).

In the assay the target is T1, SOS1 binding to KRAS G12C (Homo sapiens, UniProt Q07889).
T1 construct: consisting of amino acid residues 564 to 1049 which are the catalytic domain; purchased Reaction Biology Corporation MSC-11-502 (SOS1-Strep); MSC-11-538 (KRAS G12C)
T1 sequence (Q07889 564-1049): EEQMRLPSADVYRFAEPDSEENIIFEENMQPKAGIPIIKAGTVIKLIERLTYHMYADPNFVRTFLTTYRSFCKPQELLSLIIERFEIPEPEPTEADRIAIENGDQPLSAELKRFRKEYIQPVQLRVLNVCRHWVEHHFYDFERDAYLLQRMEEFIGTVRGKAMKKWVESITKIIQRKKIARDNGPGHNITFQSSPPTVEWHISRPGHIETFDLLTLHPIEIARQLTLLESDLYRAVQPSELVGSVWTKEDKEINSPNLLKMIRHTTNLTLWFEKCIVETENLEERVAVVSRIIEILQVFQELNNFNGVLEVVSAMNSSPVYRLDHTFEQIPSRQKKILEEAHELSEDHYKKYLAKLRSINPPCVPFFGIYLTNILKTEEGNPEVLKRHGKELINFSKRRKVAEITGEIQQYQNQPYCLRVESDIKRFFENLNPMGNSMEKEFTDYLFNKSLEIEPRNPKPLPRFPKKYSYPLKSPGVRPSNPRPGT
Put plainly: SOS1 GTP substitution inhibition test (HTRF/TR-FRET, KRAS G12C-SOS1 binding inhibitory ability). Type of assay: biochemical. As to conditions: HTRF, GST-KRAS G12C (2-169), SOS1-Strep (564-1049), 1.6, 8, 40, 200, 1,000 nM. As for the experimental part: In order to determine whether the substitution function of SOS1 binding to KRAS G12C is inhibited by the above-described example compounds, a homogeneous time-resolved fluorescence (HTRF) test was performed using G12C(#MSC-11-538) and SOS1-Strep(#MSC-11-502) purchased from Reaction Biology Corporation (MA, USA). The activity of SOS1 enzyme was determined by measuring the amount of GTP bound to KRAS G12C proteins, using the principle of time-resolved fluorescence energy transfer (TR-FRET). Based on the principle that terbium bound to the GST-binding antibody of the GST-KRAS G12C protein acts as a donor of fluorescence resonance energy transfer (FRET), and the GTP bound to the KRAS G12C protein is labeled with the fluorescent agent DY-647P1 and acts as a receiver, when the more GTP is bound to the KRAS G12C protein by the substitution reaction of SOS1 according to this test, the higher HTRF or FRET signal is measured. To summarize, glutathione S-transferase (GST)-tagged KRAS G12C proteins (consisting of amino acid residues 2 to 169) required for the reaction, streptavidin-tagged SOS1 proteins (consisting of amino acid residues 564 to 1049 which are the catalytic domain), anti-GST antibody (#61[…]) purchased from CISBIO corporation, nucleic acid (#NU-820-647P1) purchased from Jena Bioscience GmbH were mixed in a buffer solution formed from 10 mM HEPES pH7.4, 150 mM NaCl, 5 mM MgCl2, and 1 mM dithiothreitol (DTT), and the mixture was added to a 384-well plate and reacted at room temperature. Next, FRET signals were measured with a Perkin Elmer Envision microplate reader. In this case, an excitation signal (excitation) was measured at 320 nm, and an emission signal (emission) was measured at 615/665 nm. The fluorescence measurement value when the SOS1 protein was not included was calculated as a background signal value, and the background signal value was subtracted from all of the measured HTRF values. The fluorescence measurement value when the synthesized compound was not included was measured as a control value, and this value was selected as a reference point of 100%. For each of the example compounds, fluorescence was measured at concentrations of 1.6, 8, 40, 200, and 1,000 nM (5 points, 5-fold), and the 50% activity inhibition value (IC50) of each of the compounds was calculated using GraphPad Prism. When the IC50 value was 50 nM or less, the inhibitory ability was denoted as +++. When the IC50 value was more than 50 nM and 100 nM or less, the inhibitory ability was denoted as ++. When the IC50 value was more than 100 nM, the inhibitory ability was denoted as +.
(In TR-FRET formats the signal depends on donor and acceptor labels being close together.)
For the compound `Cc1nc(N[C@H](C)c2cc(N)cc(C(F)(F)F)c2)c2cc(NC3CCOCC3)c(C(=O)N3CCOCC3)cc2n1` [Example 48, (R)-(4-((1-(3-amino-5-(trifluoromethyl)phenyl)ethyl)amino)-2-methyl-6-((tetrahydro-2H-pyran-4-yl)amino)quinazoline-7-yl)(morpholino)methanone], the IC50 was over 100 nM.

In the case of `CNc1cc2c(N[C@H](C)c3cc(N)cc(C(F)(F)F)c3)nc(C)nc2cc1CN1CCOCC1` [Example 49, (R)-N^4-(1-(3-amino-5-(trifluoromethyl)phenyl)ethyl)-N^6,2-dimethyl-7-(morpholinomethyl)quinazoline-4,6-diamine], the IC50 is 50 to 100 nM.

Turning to `CNc1cc2c(N[C@H](C)c3cc(N)cc(C(F)(F)F)c3F)nc(C)nc2cc1C(=O)N1CCOCC1` [Example 50, (R)-(4-((1-(5-amino-2-fluoro-3-(trifluoromethyl)phenyl)ethyl)amino)-2-methyl-6-(methylamino)quinazoline-7-yl)(morpholino)methanone], the IC50 is at most 50 nM.

In turn, `CNc1cc2c(N[C@H](C)c3cc(N)cc(C(F)F)c3)nc(C)nc2cc1C(=O)N1CCOCC1` [Example 51, (R)-(4-((1-(3-amino-5-(difluoromethyl)phenyl)ethyl)amino)-2-methyl-6-(methylamino)quinazoline-7-yl)(morpholino)methanone] had an IC50 of at most 50 nM.

For `CCNc1cc2c(N[C@H](C)c3cc(N)cc(C(F)F)c3F)nc(C)nc2cc1C(=O)N1CCOCC1` [Example 52, (R)-(4-((1-(5-amino-3-(difluoromethyl)-2-fluorophenyl)ethyl)amino)-6-(ethylamino)-2-methylquinazoline-7-yl)(morpholino)methanone], the IC50 lay within 50 to 100 nM.

Turning to `CNc1cc2c(N[C@H](C)c3cc(N)cc(C(F)(F)F)c3)nc(C)nc2cc1C(=O)N1CCSC1` [Example 53, (R)-(4-((1-(3-amino-5-(trifluoromethyl)phenyl)ethyl)amino)-2-methyl-6-(methylamino)quinazoline-7-yl)(thiazolidine-3-yl)methanone], the IC50 was at most 50 nM.

`CNc1cc2c(N[C@H](C)c3cc(N)cc(-c4ccoc4)c3)nc(C)nc2cc1C(=O)N1CCOCC1` [Example 54, (R)-(4-((1-(3-amino-5-(furan-3-yl)phenyl)ethyl)amino)-2-methyl-6-(methylamino)quinazolin-7-yl)(morpholino)methanone] displayed an IC50 of 50 to 100 nM.

Turning to `Cc1nc(N[C@H](C)c2cc(N)cc(C(F)F)c2F)c2cc(NC(C)C)c(C(=O)N3CCOCC3)cc2n1` [Example 55, (R)-4-((1-(5-amino-3-(difluoromethyl)-2-fluorophenyl)ethyl)amino)-6-(isopropylamino)-2-methylquinazoline-7-(yl)(morpholino)methanone], the IC50 is at most 50 nM.

In turn, `COCCNc1cc2c(N[C@H](C)c3cc(N)cc(C(F)F)c3F)nc(C)nc2cc1C(=O)N1CCOCC1` [Example 56, (R)-(4-((1-(5-amino-3-(difluoromethyl)-2-fluorophenyl)ethyl)amino)-6-((2-methoxyethyl)amino)-2-methylquinazolin-7-yl)(morpholino)methanone] came in with an IC50 of at most 50 nM.

With `CNc1cc2c(N[C@H](C)c3cc(N)cc(C(F)(F)F)c3)nc(C)nc2cc1C(=O)N1CCN(C)CC1` [Example 57, (R)-(4-((1-(3-amino-5-(trifluoromethyl)phenyl)ethyl)amino)-2-methyl-6-(methylamino)quinazoline-7-yl)(4-methylpiperazin-1-yl)methanone], the IC50 lay in the range of 50 to 100 nM.

The compound `CNc1cc2c(N[C@H](C)c3cc(N)cc(C(F)(F)F)c3)nc(C)nc2cc1C(=O)N1CC2COCC2C1` (stereo partly drawn) [Example 58, (4-(((R)-1-(3-amino-5-(trifluoromethyl)phenyl)ethyl)amino)-2-methyl-6-(methylamino)quinazoline-7-yl)(tetrahydro-1H-furo[3,4-c]pyrrol-5(3H)-yl)methanone] registered an IC50 of at most 50 nM.

Turning to `CNc1cc2c(N[C@H](C)c3cc(N)cc(C(F)(F)F)c3)nc(C)nc2cc1C(=O)N1CCS(=O)(=O)CC1` [Example 59, (R)-(4-((1-(3-amino-5-(trifluoromethyl)phenyl)ethyl)amino)-2-methyl-6-(methylamino)quinazolin-7-yl)(1,1-dioxothiomorpholino)methanone], the IC50 is at most 50 nM.

With `CNc1cc2c(N[C@H](C)c3cc(N)cc(C(F)(F)F)c3)nc(C)nc2cc1C(=O)N1CCSCC1` [Example 60, (R)-(4-((1-(3-amino-5-(trifluoromethyl)phenyl)ethyl)amino)-2-methyl-6-(methylamino)quinazolin-7-yl)(thiomorpholino)methanone], the IC50 was at most 50 nM.

With `CNc1cc2c(N[C@H](C)c3cc(N)cc(C(F)(F)F)c3)nc(C)nc2cc1C(=O)N1CCNCC1` [Example 61, (R)-(4-((1-(3-amino-5-(trifluoromethyl)phenyl)ethyl)amino)-2-methyl-6-(methylamino)quinazoline-7-yl)(piperazine-1-yl)methanone], the IC50 was at most 50 nM.

The compound `CNc1cc2c(N[C@H](C)c3cc(N)cc(C(F)(F)F)c3)nc(C)nc2cc1C(=O)N1CCC1` [Example 62, (R)-(4-((1-(3-amino-5-(trifluoromethyl)phenyl)ethyl)amino)-2-methyl-6-(methylamino)quinazoline-7-yl)(azetidine-1-yl)methanone] came in with an IC50 of 50 to 100 nM.

In turn, `CNc1cc2c(N[C@H](C)c3cc(N)cc(C(F)F)c3F)nc(C)nc2cc1C(=O)N1CC2COCC2C1` (stereo partly drawn) [Example 63, (4-(((R)-1-(5-amino-3-(difluoromethyl)-2-fluorophenyl)ethyl)amino)-2-methyl-6-(methylamino)quinazoline-7-yl)(tetrahydro-1H-furo[3,4-c]pyrrol-5(3H)-yl)methanone] displayed an IC50 of at most 50 nM.

`CNc1cc2c(N[C@H](C)c3cc(N)cc(C(F)F)c3F)nc(C)nc2cc1C(=O)N1CCS(=O)(=O)CC1` [Example 64, (R)-(4-((1-(5-amino-3-(difluoromethyl)-2-fluorophenyl)ethyl)amino)-2-methyl-6-(methylamino)quinazoline-7-yl)(1,1-dioxothiomorpholino)methanone]: the IC50 is at most 50 nM.

Regarding `CNc1cc2c(N[C@H](C)c3cc(C)cc(N)c3)nc(C)nc2cc1C(=O)N1CCOCC1` [Example 65, (R)-(4-((1-(3-amino-5-methylphenyl)ethyl)amino)-2-methyl-6-(methylamino)quinazolin-7-yl)(morpholino)methanone], the IC50 is 50 to 100 nM.

Turning to `COCCNc1cc2c(N[C@H](C)c3cc(N)cc(C(F)(F)F)c3)nc(C)nc2cc1C(=O)N1CCS(=O)(=O)CC1` [Example 68, (R)-(4-((1-(3-amino-5-(trifluoromethyl)phenyl)ethyl)amino)-6-((2-methoxyethyl)amino)-2-methylquinazoline-7-yl)(1,1-dioxothiomorpholino)methanone], the concentration for half-maximal inhibition (IC50) was at most 50 nM.

Take `COc1cc2c(N[C@H](C)c3cc(N)cc(C(F)(F)F)c3)nc(C)nc2cc1NC1CCOCC1` [Example 69, (R)-NM-(1-(3-amino-5-(trifluoromethyl)phenyl)ethyl)-6-methoxy-2-methyl-N^7-(tetrahydro-2H-pyran-4-yl)quinazoline-4,7-diamine]: the IC50 is over 100 nM.
